The record followed here is patent US4434170A, “Nor-tropane derivatives, and their application in therapeutics” (Delalande S.A., priority 1980, dated 1984).

The subject of series [1] is apomorphinic straightenings. In words: Antagonism to apomorphinic straightenings (mice). Format: in vivo. As to conditions: Mus musculus, ip, read-out: Antagonism to apomorphinic straightenings (mice) ED 50. An excerpt:
(§1) I. C. Niemegeers and A. H. M. Jageneau in Arzneim-Forsch. (1960), 10, 1003.

The next series is described as follows: Acute toxicity (mice). As to conditions: mouse, in vivo, ip, read-out: Toxicity (mice) LD 50. The protocol: The acute toxicity of the compounds of the invention was also tested intraperitoneally on mice.
Series [2] deals with apomorphine induced stereotypies. In words: Antagonism to the apomorphine induced stereotypies (rat). Format: in vivo. As to conditions: po.
Source text: as §1

The next series is described as follows: Stair case test (rat). Format: in vivo. As to conditions: po, sedative effect.
The next series concerns gastric evacuation. In words: Gastric evacuation test (rat). Format: in vivo. How it is done: The compounds of formula (I) were administered orally simultaneously with 20 steel balls to wakeful rats starved for 20 hours.
Series [3] relates to vomiting induced by apomorphine. In words: Antiemetic activity (dogs), vomiting induced by apomorphine. To be noted: one hour before apomorphine 0.1 mg/kg subcutaneous. The series is classed as in vivo.

Take `COc1cccc(C(=O)N[C@@H]2C[C@H]3CCC[C@@H](C2)N3Cc2ccccc2)c1OC` [compound 148]: the ED50 in series [1] worked out at 0.008 mg/kg. Also, the LD50 in “Acute toxicity (mice)” came out at 100 mg/kg.
The like results for `CCOc1c(OC)cccc1C(=O)N[C@@H]1C[C@H]2CC[C@@H](C1)N2Cc1ccc(Cl)c(Cl)c1` [compound 145] were, in that order, 0.3 mg/kg and > 400 mg/kg.
With `COc1cccc(C(=O)N[C@@H]2C[C@H]3CC[C@@H](C2)N3Cc2ccc(Br)cc2)c1OC` [compound 129], the ED50 in series [1] stood at 0.008 mg/kg. In “Acute toxicity (mice)”, the LD50 was 180 mg/kg.
With `COc1cccc(C(=O)N[C@@H]2C[C@H]3CC[C@@H](C2)N3Cc2cccc(C)c2)c1OC` [compound 118], the ED50 in series [1] came to 0.016 mg/kg. In the series “Acute toxicity (mice)”, the LD50 was 90 mg/kg.
For `COc1cc([N+](=O)[O-])cc(C(=O)N[C@@H]2C[C@H]3CC[C@@H](C2)N3Cc2ccccc2)c1OC` [compound 142], the ED50 in series [1] is 0.012 mg/kg. Besides, in the series “Acute toxicity (mice)”, the LD50 stood at 87.5 mg/kg.
Consider `CCOc1c(OC)cccc1C(=O)N[C@@H]1C[C@H]2CC[C@@H](C1)N2Cc1ccccc1` [compound 139], for which the ED50 in series [1] turned out to be 0.01 mg/kg; in series [2], 0.06 mg/kg; in the series “Stair case test (rat)”, 0.3 mg/kg. Further, the LD50 in “Acute toxicity (mice)” is 76 mg/kg.
Take `COc1cc(N)c(Cl)cc1C(=O)N[C@@H]1C[C@H]2CC[C@@H](C1)N2Cc1cccc(C)c1` [compound 169]: the ED50 in series [1] worked out at 0.034 mg/kg; in series [2], 0.46 mg/kg; in “Stair case test (rat)” it was 3.5 mg/kg. The LD50 in the series “Acute toxicity (mice)” is 70 mg/kg.
Consider `COc1cc(Br)cc(C(=O)N[C@@H]2C[C@H]3CC[C@@H](C2)N3Cc2ccccc2)c1OC` [compound 147], for which the ED50 in series [1] came to 0.042 mg/kg. Moreover, the “Gastric evacuation: % animals whose stomach contains no ball after 90 minutes” value in the series on gastric evacuation (0.3 mg/kg/po) is on record as 25%; in the series on gastric evacuation (0.6 mg/kg/po), 63%; in the series with gastric evacuation (10 mg/kg/po), 90%. For the same compound, the “Antiemetic activity: % inhibition of vomiting induced by apomorphine” value in series [3] (0.1 mg/kg/po) worked out at 100%. Besides, the LD50 in the series “Acute toxicity (mice)” was found to be 165 mg/kg.
Regarding `CCOc1cccc(C(=O)N[C@@H]2C[C@H]3CC[C@@H](C2)N3Cc2ccccc2)c1OCC` [compound 115], the ED50 in series [1] was determined as 0.038 mg/kg; in series [2] it was 0.22 mg/kg; in “Stair case test (rat)”, 1.3 mg/kg. The LD50 in the series “Acute toxicity (mice)” is 53 mg/kg.
`COc1cccc(C(=O)N[C@@H]2C[C@H]3CC[C@@H](C2)N3Cc2cccc(F)c2)c1OC` [compound 113]: the ED50 in series [1] is 0.016 mg/kg. The LD50 in “Acute toxicity (mice)” amounted to 140 mg/kg.
Regarding `COc1cccc(C(=O)N[C@@H]2C[C@H]3CC[C@@H](C2)N3Cc2cccc(Cl)c2)c1OC` [compound 173], the ED50 in series [1] was 0.013 mg/kg. Further, the LD50 in “Acute toxicity (mice)” turned out to be 160 mg/kg.
Taken in the same sequence, the figures for `CCOc1cc(N)c(Br)cc1C(=O)N[C@@H]1C[C@H]2CC[C@@H](C1)N2Cc1cccc(Cl)c1` [compound 126] were 0.054 mg/kg and > 400 mg/kg.
With `CCOc1cc(N)c(Br)cc1C(=O)N[C@@H]1C[C@H]2CC[C@@H](C1)N2Cc1ccc(Cl)cc1` [compound 123], the ED50 in series [1] was determined as 0.041 mg/kg; in series [2] it was 0.2 mg/kg; in “Stair case test (rat)”, 1.7 mg/kg. Also, the LD50 in “Acute toxicity (mice)” was > 400 mg/kg.
For `COc1cc(SC)cc(C(=O)N[C@@H]2C[C@H]3CC[C@@H](C2)N3Cc2ccccc2)c1OC` [compound 168], in series [1], the ED50 stood at 0.28 mg/kg. Moreover, the LD50 in “Acute toxicity (mice)” came to 120 mg/kg.
Take `COc1cccc(C(=O)N[C@@H]2C[C@H]3CC[C@@H](C2)N3Cc2ccc(C#N)cc2)c1OC` [compound 180]: in series [1], the ED50 was determined as 0.01 mg/kg. In addition, in “Acute toxicity (mice)”, the LD50 was 275 mg/kg.
Taken in the same sequence, the figures for `COc1cc(N)c(Br)cc1C(=O)N[C@@H]1C[C@H]2CC[C@@H](C1)N2Cc1ccccc1F` [compound 131] were 0.013 mg/kg and 250 mg/kg.
Turning to `COc1cc(N)c(Br)cc1C(=O)N[C@@H]1C[C@H]2CC[C@@H](C1)N2Cc1ccccc1Cl` [compound 121], the ED50 in series [1] came out at 0.024 mg/kg. Also, the LD50 in “Acute toxicity (mice)” came to 250 mg/kg.
As to `CCOc1c(OC)cccc1C(=O)N[C@@H]1C[C@H]2CCC[C@@H](C1)N2Cc1ccccc1` [compound 143], the ED50 in series [1] is 0.025 mg/kg; in series [2], 0.26 mg/kg; in “Stair case test (rat)”, 1.6 mg/kg. Besides, the LD50 in the series “Acute toxicity (mice)” was 110 mg/kg.
In the case of `CCOc1cccc(C(=O)N[C@@H]2C[C@H]3CC[C@@H](C2)N3Cc2ccccc2)c1OC` [compound 140], in series [1], the ED50 was determined as 0.019 mg/kg. In addition, the LD50 in the series “Acute toxicity (mice)” stood at 70 mg/kg.
The like results for `COc1cccc(C(=O)N[C@@H]2C[C@H]3CC[C@@H](C2)N3Cc2ccc(C)cc2)c1OC` [compound 120] were, in that order, 0.032 mg/kg and 100 mg/kg.
Consider `CCOc1c(OC)cc(OC)cc1C(=O)N[C@@H]1C[C@H]2CC[C@@H](C1)N2Cc1ccccc1` [compound 141], for which the ED50 in series [1] worked out at 0.035 mg/kg. The LD50 in the series “Acute toxicity (mice)” came out at 115 mg/kg.
For `COc1cccc(C(=O)N[C@@H]2C[C@H]3CC[C@@H](C2)N3Cc2ccc(F)cc2)c1OC` [compound 155], the ED50 in series [1] came to 0.005 mg/kg. The LD50 in “Acute toxicity (mice)” turned out to be 140 mg/kg.
Taken in the same sequence, the figures for `CCSc1cc(OC)c(OC)c(C(=O)N[C@@H]2C[C@H]3CC[C@@H](C2)N3Cc2ccccc2)c1` [compound 174] were 0.034 mg/kg and 95 mg/kg.
As for `COc1cccc(C(=O)N[C@@H]2C[C@H]3CC[C@@H](C2)N3Cc2ccc(Cl)cc2)c1OC` [compound 112], the ED50 in series [1] worked out at 0.029 mg/kg. Further, the LD50 in the series “Acute toxicity (mice)” was determined as 220 mg/kg.
As for `COc1cc(C(C)=O)cc(C(=O)N[C@@H]2C[C@H]3CC[C@@H](C2)N3Cc2ccccc2)c1OC` [compound 171], the ED50 in series [1] turned out to be 0.029 mg/kg. For the same compound, the LD50 in “Acute toxicity (mice)” turned out to be 115 mg/kg.
As to `COc1c(N)cc(Br)cc1C(=O)N[C@@H]1C[C@H]2CC[C@@H](C1)N2Cc1ccccc1` [compound 106], the ED50 in series [1] was 0.053 mg/kg; in series [2], 1.6 mg/kg; in the series “Stair case test (rat)”, 8 mg/kg. Moreover, the LD50 in the series “Acute toxicity (mice)” worked out at 160 mg/kg.
Regarding `COc1cc(OC)c(OC)c(C(=O)N[C@@H]2C[C@H]3CC[C@@H](C2)N3Cc2ccccc2)c1` [compound 135], the ED50 in series [1] is 0.01 mg/kg. In addition, the LD50 in “Acute toxicity (mice)” was 70 mg/kg.
With `COc1cc(N)c(Br)cc1C(=O)N[C@@H]1C[C@H]2CC[C@@H](C1)N2Cc1ccoc1` [compound 132], the ED50 in series [1] stood at 0.12 mg/kg. Besides, the “Gastric evacuation: % animals whose stomach contains no ball after 90 minutes” value in the series on gastric evacuation (0.6 mg/kg/po) is 25%; in the series with gastric evacuation (1.3 mg/kg/po) it was 50%; with gastric evacuation (5 mg/kg/po), 75%; with gastric evacuation (10 mg/kg/po), 100%. In addition, the “Antiemetic activity: % inhibition of vomiting induced by apomorphine” value in series [3] (0.01 mg/kg/po) is 100%. Moreover, the LD50 in the series “Acute toxicity (mice)” was found to be 200 mg/kg.
In the case of `COc1cc(N)c(Cl)cc1C(=O)N[C@@H]1C[C@H]2CC[C@@H](C1)N2Cc1cccc(F)c1` [compound 127], in series [1], the ED50 stood at 0.007 mg/kg. Also, the LD50 in “Acute toxicity (mice)” came to 200 mg/kg.
